The target in the test is human P2X3 receptor (Homo sapiens (Human), UniProt P56373). Put plainly: Evaluation of human P2X3 receptor inhibitory activity (Test Example 1-1, FDSS 3000, 96-well, 50 nM ATP). The test is classed as cell-based. Particulars: human P2X3 receptor in C6BU-1 cells; Test Example 1-1 (compounds I-001 to I-300). On the procedure: Stably expressing cell line (C6BU-1 cell transfected with human P2X3 receptor gene (GenBank accession number Y07683) was used. The cells were seeded in a 96-well microtiter plate at a concentration of 8000 cells/well and cultured in the medium (7.0% fetal bovine serum, 7.0% horse serum, 1% antibiotic and antifungal in DMEM) for one day at 37° C. under 5% carbon dioxide atmosphere. The medium was replaced with 4 μM Fluo-3-AM solution (20 mM HEPES, 137 mM NaCl, 5.27 mM KCl, 0.9 mM MgCl2, 1.26 mM CaCl2, 5.6 mM D-glucose, 2.5 mM probenecid, 1% BSA, and 0.08% Pluronic F-127, pH 7.5) and incubated at 37° C. under 5% dioxide carbon atmosphere for one hour. The plate was washed with washing buffer (20 mM HEPES, 137 mM NaCl, 5.27 mM KCl, 0.9 mM MgCl2, 1.26 mM CaCl2, 5.6 mM D-glucose, 2.5 mM probenecid, pH7.5), and each well was added with 40 μL of this buffer. The plate was placed in High-Throughput Screening System. FDSS 3000 (Hamamatsu Photonics K.K.). Measurement of fluorescence intensity by FDSS 3000 was started, and 40 μL of DMSO solutions containing different concentrations of the test compound as prepared by dilution with dilution buffer (20 mM HEPES, 137 mM NaCl, 5.27 mM KCl, 0.9 mM MgCl2, 1.26 mM CaCl2, 5.68 mM D-glucose, 2.5 mM probenecid, 0.1% Pluronic F-127, pH7.5) were dispensed to each well through the built-in automatic dispenser. Five minutes after, 50 nM ATP solution (50 μL) prepared by dilution with the dilution buffer was dispensed through the built-in automatic dispenser, and the measurement of fluorescence intensity was continued for 4 min. For each well, the specific maximum fluorescence intensity was calculated as the ratio of the maximum fluorescence intensity after addition of the ATP solution to the fluorescence intensity at the starting of the measurement. The 50% inhibitory concentration (IC50) was calculated under the assumption that the specific maximum fluorescence intensity without test compound is 0% inhibition and that the specific maximum fluorescence intensity when the dilution buffer was added in place of ATP solution is 100% inhibition, to evaluate the inhibitory activity of the test compound. FDSS software (Hamamatsu Photonics K.K.) was used for calculation of the specific maximum fluorescence intensity. IC50 was calculated using Microsoft Excel (Microsoft Corporation) and XLfit (idbs Ltd.)
The data of the compounds I-001 to I-300 are the results by the method mentioned in Test Example 1-1, and the data of the compounds I-301 to I-483 are the results by the method mentioned in Test Example 1-2.

Each structure is given as a SMILES string. pIC50: −log10 of the molar value. A value given as a limit tells only on which side of the number the result lay.

Sequence of human P2X3 receptor (P56373 whole entry): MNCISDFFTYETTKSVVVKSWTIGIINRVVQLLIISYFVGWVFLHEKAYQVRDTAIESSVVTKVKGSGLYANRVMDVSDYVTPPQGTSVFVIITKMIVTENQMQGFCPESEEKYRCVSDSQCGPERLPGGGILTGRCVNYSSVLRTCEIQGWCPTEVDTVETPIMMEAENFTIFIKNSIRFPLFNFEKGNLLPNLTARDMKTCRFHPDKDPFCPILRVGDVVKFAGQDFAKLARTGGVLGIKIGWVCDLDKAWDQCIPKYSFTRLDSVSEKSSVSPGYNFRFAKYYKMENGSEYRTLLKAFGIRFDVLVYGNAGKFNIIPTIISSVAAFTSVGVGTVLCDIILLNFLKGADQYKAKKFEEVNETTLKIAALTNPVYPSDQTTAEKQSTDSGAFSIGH

For the molecule `CCn1c(=O)cc(Nc2ccc(Oc3cncc(C(N)=O)c3)cc2)n(Cc2ccc(Cl)cc2)c1=O` [Compound I-001], the pIC50 (as a rule, the negative decadic logarithm of the IC50, by convention in mol/L) is 7.96.

Regarding `CCC(=O)Nc1c[nH]/c(=N\c2ccc(Oc3cccc(C#N)n3)cc2)n(Cc2ccc(Cl)cc2)c1=O` [Compound I-006], the pIC50 was 8.30.

As for `COC(=O)Nc1c[nH]/c(=N\c2ccc(Oc3cccc(C(N)=O)n3)cc2)n(Cc2ccc(Cl)cc2)c1=O` [Compound I-007], the pIC50 was 7.64.

For `CCn1c(=O)cc(Nc2ccc(Oc3cccc(C(=O)OC)c3)cc2)n(Cc2ccc(Cl)cc2)c1=O` [Compound I-008, 1-(4-chlorobenzyl)-3-ethyl-6-[4-(3-methoxycarbonylphenoxy)phenylamino]pyrimidin-2,4(1H,3H)-dione], the pIC50 was 7.42. This pIC50 lies 0.22 log units lower than the previous one.

In turn, `CCn1c(=O)cc(Nc2ccc(Oc3cccc(C#N)n3)cc2)n(Cc2ccc(Cl)cc2)c1=O` [Compound I-009] gave a pIC50 of 8.30.

`CCOC(=O)c1cnc(Oc2ccc(Nc3cc(=O)n(CC)c(=O)n3Cc3ccc(Cl)cc3)cc2)s1` [Compound I-010]: the pIC50 was 8.40.

On to `CCn1c(=O)cc(Nc2ccc(Oc3cccc(C#N)n3)c(F)c2)n(Cc2ccc(Cl)cc2)c1=O` [Compound I-011], for which the pIC50 is 8.70.

`CCn1c(=O)cc(Nc2ccc(Oc3cccc(C#N)n3)c(C)c2)n(Cc2ccc(Cl)cc2)c1=O` [Compound I-012] gave a pIC50 of 8.70.

Take `CCn1c(=O)cc(Nc2ccc(Oc3ncc(C(=O)O)s3)cc2)n(Cc2ccc(Cl)cc2)c1=O` [Compound I-013]: the pIC50 is 8.70.

The molecule `CCOC(=O)c1cn(Cc2ccc(Cl)cc2)c(Nc2ccc3oc(CC)c(C)c3c2)nc1=O` [Compound I-015] gave a pIC50 of 6.80.

With `CCc1oc2ccc(Nc3nc(=O)c(C(=O)O)cn3Cc3ccc(Cl)cc3)cc2c1C` [Compound I-017], the pIC50 was 6.40. This pIC50 is 0.40 log units lower than that of the molecule before.

As for `CCOC(=O)c1c[nH]/c(=N\c2ccc(Oc3cccc(F)n3)cc2)n(Cc2ccc(Cl)cc2)c1=O` [Compound I-018], the pIC50 was 7.89.

For `CCc1oc2ccc(Nc3ncc(C(=O)NC4CCOCC4)c(=O)n3Cc3ccc(Cl)cc3)cc2c1C` [Compound I-019, 1-(4-chlorobenzyl)-2-(2-ethyl-3-methylbenzofuran-5-ylamino)-5-(tetrahydro-2H-pyran-4-ylcarbamoyl)pyrimidin-6(1H)-one], the negative-log IC50 (pIC50) is 6.87.

As for `CCc1oc2ccc(Nc3ncc(C(N)=O)c(=O)n3Cc3ccc(Cl)cc3)cc2c1C` [Compound I-020], the pIC50 is 7.30.

Regarding `CCc1oc2ccc(Nc3nc(=O)c(C(=O)NC4CCOCC4)cn3Cc3ccc(Cl)cc3)cc2c1C` [Compound I-021], the pIC50 is 7.70.

`CCc1oc2ccc(Nc3nc(=O)c(C(=O)NC(C)C)cn3Cc3ccc(Cl)cc3)cc2c1C` [Compound I-022] had a pIC50 of 7.03. Against the preceding molecule, the pIC50 is 0.67 log units lower.

The molecule `CCn1c(=O)cc(Nc2ccc(Oc3cccc(C(=O)O)c3)cc2)n(Cc2ccc(Cl)cc2)c1=O` [Compound I-023, 1-(4-chlorobenzyl)-3-ethyl-6-[4-(3-hydroxycarbonylphenoxy)phenylamino]pyrimidin-2,4(1H,3H)-dione] had a pIC50 of 8.52. This pIC50 is 1.49 log units higher than that of the molecule before.

As for `CCn1c(=O)cc(Nc2ccc(Oc3cccc(C(N)=O)c3)cc2)n(Cc2ccc(Cl)cc2)c1=O` [Compound I-024], the pIC50 is 7.85.

Consider `CCn1c(=O)cc(Nc2ccc(Oc3cccc(C(N)=O)n3)cc2)n(Cc2ccc(Cl)cc2)c1=O` [Compound I-025], for which the pIC50 is 8.22.

The molecule `CCn1c(=O)cc(Nc2ccc(Oc3cccc(C(N)=O)n3)c(F)c2)n(Cc2ccc(Cl)cc2)c1=O` [Compound I-026] had a pIC50 of 8.52.

In turn, `CCn1c(=O)cc(Nc2ccc(Oc3cccc(C(N)=O)n3)c(C)c2)n(Cc2ccc(Cl)cc2)c1=O` [Compound I-027] had a pIC50 of 8.40.

The molecule `CCn1c(=O)cc(Nc2ccc(Oc3cccc(C(=O)O)n3)c(C)c2)n(Cc2ccc(Cl)cc2)c1=O` [Compound I-028] had a pIC50 of 9.00.

For the molecule `O=C(O)c1c[nH]/c(=N\c2ccc(Oc3cccc(F)n3)cc2)n(Cc2ccc(Cl)cc2)c1=O` [Compound I-029], the pIC50 was 6.63. Against the preceding molecule, the pIC50 is 2.37 log units lower.

Consider `CCc1oc2ccc(/N=c3\[nH]cc(NC(=O)C4CCOCC4)c(=O)n3Cc3ccc(Cl)cc3)cc2c1C` [Compound I-030, 1-(4-chlorobenzyl)-2-(2-ethyl-3-methylbenzofuran-5-ylamino)-5-(tetrahydro-2H-pyran-4-ylcarbonylamino)pyrimidin-6(1H)-one], for which the pIC50 is 8.30.

The molecule `CCc1oc2ccc(Nc3nc(=O)c(C(=O)NC(CC)CC)cn3Cc3ccc(Cl)cc3)cc2c1C` [Compound I-031] had a pIC50 of 7.27.

In the case of `CCc1oc2ccc(Nc3ncc(C(=O)NCCO)c(=O)n3Cc3ccc(Cl)cc3)cc2c1C` [Compound I-032], the pIC50 was 7.47.

The molecule `CCn1c(=O)cc(Nc2ccc(Oc3cccc(C(=O)O)n3)c(F)c2)n(Cc2ccc(Cl)cc2)c1=O` [Compound I-033] gave a pIC50 of 9.00.

For `NC(=O)c1c[nH]/c(=N\c2ccc(Oc3cccc(F)n3)cc2)n(Cc2ccc(Cl)cc2)c1=O` [Compound I-034], the pIC50 is 7.85. Compared with the last molecule, the pIC50 is 1.15 log units lower.

As to `CCOC(=O)c1sc(Oc2ccc(Nc3cc(=O)n(CC)c(=O)n3Cc3ccc(Cl)cc3)cc2)nc1C` [Compound I-036], the pIC50 was 7.66.

With `O=c1c(CO)c[nH]/c(=N\c2ccc(Oc3cccc(F)n3)cc2)n1Cc1ccc(Cl)cc1` [Compound I-037], the pIC50 was 7.47.

In turn, `NC(=O)c1cccc(Oc2ccc(Nc3ncc(NC(=O)C4CCOCC4)c(=O)n3Cc3ccc(Cl)cc3)cc2)n1` [Compound I-038] showed a pIC50 of 8.70. This pIC50 lies 1.23 log units higher than the previous one.

`CCn1c(=O)cc(Nc2ccc(Oc3ncc(C(N)=O)s3)cc2)n(Cc2ccc(Cl)cc2)c1=O` [Compound I-039] showed a pIC50 above 8.40.

Molecule `CCn1c(=O)cc(Nc2ccc(Oc3cccc(C(=O)O)n3)cc2)n(Cc2ccc(Cl)cc2)c1=O` [Compound I-040] showed a pIC50 of 8.52.

For the molecule `CCn1c(=O)cc(Nc2ccc(Oc3nc(C)c(C(=O)O)s3)cc2)n(Cc2ccc(Cl)cc2)c1=O` [Compound I-041], the pIC50 is 8.52.

The molecule `O=C(NC1CCOCC1)c1c[nH]/c(=N\c2ccc(Oc3cccc(F)n3)cc2)n(Cc2ccc(Cl)cc2)c1=O` [Compound I-042] had a pIC50 of 7.85.

As to `CCOC(=O)c1cnc(Nc2ccc(Oc3cccc(C(N)=O)n3)cc2)n(Cc2ccc(Cl)cc2)c1=O` [Compound I-043], the pIC50 is 8.15.

In turn, `CCOC(=O)c1cccc(Oc2ccc(Nc3cc(=O)n(CC)c(=O)n3Cc3ccc(Cl)cc3)nc2)c1` [Compound I-044] showed a pIC50 of 6.99.

With `CCc1oc2ccc(/N=c3\[nH]cc(C=O)c(=O)n3Cc3ccc(Cl)cc3)cc2c1C` [Compound I-045], the pIC50 was 6.65.

On to `CCc1oc2ccc(/N=c3\[nH]cc(CO)c(=O)n3Cc3ccc(Cl)cc3)cc2c1C` [Compound I-046], for which the pIC50 was 6.56.

The molecule `CCc1oc2ccc(/N=c3\[nH]cc(NS(=O)(=O)C4CCOCC4)c(=O)n3Cc3ccc(Cl)cc3)cc2c1C` [Compound I-047] gave a pIC50 of 7.74.

Turning to `CCc1oc2ccc(/N=c3\[nH]cc(C=NN4CCOCC4)c(=O)n3Cc3ccc(Cl)cc3)cc2c1C` [Compound I-048], the pIC50 was 7.66.

Molecule `CCc1oc2ccc(/N=c3\[nH]cc(CNC4CCOCC4)c(=O)n3Cc3ccc(Cl)cc3)cc2c1C` [Compound I-049] gave a pIC50 of 6.65.

On to `O=C(O)c1cccc(Oc2ccc(Nc3ncc(C(=O)O)c(=O)n3Cc3ccc(Cl)cc3)cc2)n1` [Compound I-050], for which the pIC50 is 7.17.

The record behind these values is US9550763B2, “Heterocyclic ring and carbocyclic derivative” (Shionogi & Co., Ltd., priority 2012, dated 2017).
